Here are results for 1 substance from patent US20260049337A1, “A R[…] A[…] OF INHIBITING TUMOR P[…] […] TIME IN TUMOR-BEARING I[…] USE THEREOF” (NANJING VIROTHER BIOPHARMACEUTICAL CO., LTD., priority 2022, published 2026).

Assay [1] relates to LCN2 expression in CD8+ T cells. Kind of assay: CD8+ T cells cultivated with Panc02 supernatant, FACScan for Lcn2. The format is cell-based. The settings on record: 24 h, vs absence of agonist, p<0.001. The procedure:
Panc02 cells were cultivated in DMEM for 48 h, then supernatant was harvested and added into CD8+ T cells for further 24 h cultivation in the presence or absence of GLP1(7-36) or GLP1 analogue (Liraglutide) followed by FACScan for Lcn2 determination (FIG. VI(B)-3B).

Assay [2] shares this test system. Kind of assay: Panc02 cells cocultured with CD8+ T cells, flow cytometry for LCN2. In kind it is cell-based. The settings on record: coculture with Panc02 for 24 h; vs coculture without GLP1(7-36), p<0.01. The procedure: Panc02 cells were cocultured with CD8+ T cells with or without GLP1(7-36) for 24 h, then T cells were subjected to flow cytometry for determination of LCN2 expression (FIG. 28A).

On to “GLP-1(7-36): GLP-1 receptor agonist peptide, SEQ ID NO: 1, HAEGTFTSDVSSYLEGQAAKEFIAWLVKGR”, for which the “Lcn2 expression in CD8+ T cells” value in assay [1] and in assay [2] was “statistically significantly reduced” in each case.
